In PubChem BioAssay AID1963428 (Molecular Pharmacology Branch, DTP, NCI, 2024):

Test system: 171881-019-R-J1-PDC complex spheroid growth, % test/control
Assay: Anticancer human tumor 171881-019-R-J1-PDC patient-derived invasive breast carcinoma cell line growth inhibition [Asc]
Conditions: for IC50: curve of first compound; for viability, T/C: stronger effect = lower value
Summary of the method: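 Concentration series start at each agent's clinical Cmax, or at 10 microM when none is established, and drop in half-log steps; agents are applied alone or together to complex spheroids built with HUVEC and hMSC.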

[1] = second compound 0.1 µM, first compound 0.0316 µM
[2] = second compound 0.1 µM, first compound 0.1 µM
[3] = second compound 0.1 µM, first compound 0.316 µM
[4] = second compound 0.1 µM, first compound 1 µM
[5] = second compound 0.316 µM, first compound 0.0316 µM
[6] = second compound 0.316 µM, first compound 0.1 µM
[7] = second compound 0.316 µM, first compound 0.316 µM
[8] = second compound 0.316 µM, first compound 1 µM
[9] = second compound 1 µM, first compound 0.0316 µM
[10] = second compound 1 µM, first compound 0.1 µM
[11] = second compound 1 µM, first compound 0.316 µM
[12] = second compound 1 µM, first compound 1 µM
[13] = second compound 3.16 µM, first compound 0.0316 µM
[14] = second compound 3.16 µM, first compound 0.1 µM
[15] = second compound 3.16 µM, first compound 0.316 µM
[16] = second compound 3.16 µM, first compound 1 µM
[17] = second compound 10 µM, first compound 0.0316 µM
[18] = second compound 10 µM, first compound 0.1 µM
[19] = second compound 10 µM, first compound 0.316 µM
[20] = second compound 10 µM, first compound 1 µM
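Wherever viability, T/C is given: spheroids exposed to compounds for 7 days.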

IC50 (second compound 0.1 µM) [nM]	IC50 (second compound 0.316 µM) [nM]	IC50 (second compound 1 µM) [nM]	IC50 (second compound 3.16 µM) [nM]	IC50 (second compound 10 µM) [nM]	Structure (SMILES)	viability, T/C [1] [%]	viability, T/C [2] [%]	viability, T/C [3] [%]	viability, T/C [4] [%]	viability, T/C [5] [%]	viability, T/C [6] [%]	viability, T/C [7] [%]	viability, T/C [8] [%]	viability, T/C [9] [%]	viability, T/C [10] [%]	viability, T/C [11] [%]	viability, T/C [12] [%]	viability, T/C [13] [%]	viability, T/C [14] [%]	viability, T/C [15] [%]	other results
> 10000	> 10000	> 10000	> 10000	> 10000	O=C(c1cc(Cc2n[nH]c(=O)c3ccccc23)ccc1F)N1CCN(C(=O)C2CC2)CC1 + Cc1c(S(C)(=O)=O)c(-c2cc(F)cc(N3CCN(c4ccc(NS(=O)(=O)c5ccc(NC(CCN6CCC(C(=O)OCCCP(=O)(O)O)CC6)CSc6ccccc6)c(S(=O)(=O)C(F)(F)F)c5)cc4)CC3)c2)c(-c2ccc(Cl)cc2)n1C(C)C	106	102	103	124	136	125	134	125	132	136	143	168	158	200	193	viability, T/C (second compound 0.1 µM, first compound 3.16 µM): 102%; viability, T/C (second compound 0.1 µM, first compound 10 µM): 111%; viability, T/C (second compound 0.316 µM, first compound 3.16 µM): 127%; viability, T/C (second compound 0.316 µM, first compound 10 µM): 134%; viability, T/C (second compound 1 µM, first compound 3.16 µM): 169%; viability, T/C (second compound 1 µM, first compound 10 µM): 180%; viability, T/C [16]: 164%; viability, T/C (second compound 3.16 µM, first compound 3.16 µM): 197%; viability, T/C (second compound 3.16 µM, first compound 10 µM): 184%; viability, T/C [17]: 212%; viability, T/C [18]: 208%; viability, T/C [19]: 228%; viability, T/C [20]: 227%; viability, T/C (second compound 10 µM, first compound 3.16 µM): 209%; viability, T/C (second compound 10 µM, first compound 10 µM): 175%
207	164	125	87.3	106	O=C(c1ccc(F)c(F)c1Nc1ccc(I)cc1F)N1CC(O)([C@@H]2CCCCN2)C1 + Cc1c(S(C)(=O)=O)c(-c2cc(F)cc(N3CCN(c4ccc(NS(=O)(=O)c5ccc(NC(CCN6CCC(C(=O)OCCCP(=O)(O)O)CC6)CSc6ccccc6)c(S(=O)(=O)C(F)(F)F)c5)cc4)CC3)c2)c(-c2ccc(Cl)cc2)n1C(C)C	222	97.6	25.8	18.8	186	75.9	18.7	12.3	158	59.2	13.7	6.11	115	44.8	8.8	viability, T/C (second compound 0.1 µM, first compound 0.00316 µM): 98.9%; viability, T/C (second compound 0.1 µM, first compound 0.01 µM): 110%; viability, T/C (second compound 0.316 µM, first compound 0.00316 µM): 109%; viability, T/C (second compound 0.316 µM, first compound 0.01 µM): 194%; viability, T/C (second compound 1 µM, first compound 0.00316 µM): 136%; viability, T/C (second compound 1 µM, first compound 0.01 µM): 193%; viability, T/C (second compound 3.16 µM, first compound 0.00316 µM): 156%; viability, T/C (second compound 3.16 µM, first compound 0.01 µM): 182%; viability, T/C [16]: 3.61%; viability, T/C (second compound 10 µM, first compound 0.00316 µM): 175%; viability, T/C (second compound 10 µM, first compound 0.01 µM): 174%; viability, T/C [17]: 118%; viability, T/C [18]: 54.9%; viability, T/C [19]: 12%; viability, T/C [20]: 3.48%
